Results reported in patent publication EP1216043B1, “RETARD FORM CONTAINING ALPHA-LIPOIC ACID (DERIVATIVES)” (priority 1999, dated 2001).
Where two headings read alike, the source gives them in different places.

Experiments:
[1] = cited from earlier work; for Cmax / F (Bioverfügbarkeit) / t1/2 / tmax: peroral, arithmetic mean; for absolute Bioverfügbarkeit: clinical studies, range over the dosage forms of Tabelle 1
[2] = Diffusion study: diffusion of α-Liponsäure out of a dialysis vessel with/without Chitosan and Essigsäure
From the text: Bei der vorliegenden Diffusionsstudie wurde der Einfluss von Chitosan auf das Diffusionsverhalten von α-Liponsäure untersucht.

[3] = 200 mg (±)-Liponsäure als 200 mg-Tablette
[4] = 200 mg (±)-Liponsäure als 4x50 mg-Tabletten
[5] = 200 mg (±)-Liponsäure als Lösung

| SMILES | Plasma-Halbwertszeit ([1]; after peroral administration) | share of the Konzentrationsgleichgewicht reached ([2]; in presence of Chitosan, without Essigsäure, ca. 5 hours) | time until Konzentrationsgleichgewicht der α-Liponsäure innerhalb und außerhalb des Dialysegefäßes was reached ([2]; ohne Chitosan, printed as 'ca.') | Cmax [1, 3] | F (Bioverfügbarkeit) [1, 3] | t1/2 [1, 3] | tmax [1, 3] | Cmax [1, 4] | F (Bioverfügbarkeit) [1, 4] | t1/2 [1, 4] | tmax [1, 4] | Cmax [1, 5] | F (Bioverfügbarkeit) [1, 5] | t1/2 [1, 5] | tmax [1, 5] | absolute Bioverfügbarkeit [1] |
| --- | --- | --- | --- | --- | --- | --- | --- | --- | --- | --- | --- | --- | --- | --- | --- | --- |
| O=C(O)CCCCC1CCSS1 (racemic) [α-Liponsäure, 1,2-Dithiolan-3-pentansäure] | weniger als zwei Stunden | 63,8 % ± 4,3 | ≤ 5 Stunden | – | – | – | – | – | – | – | – | – | – | – | – | – |
| O=C(O)CCCC[C@@H]1CCSS1 [R, R-(+)-α-Liponsäure] | – | – | – | 490 ng/mL | 24.1% | 19.8 min | 54 min | 600 ng/mL | 25.9% | 42.6 min | 42 min | 2240 ng/mL | 38.2% | 14.4 min | 12.6 min | 24.1 - 38.2% |
| O=C(O)CCCC[C@H]1CCSS1 [S, S-(-)-α-Liponsäure] | – | – | – | 310 ng/mL | 19.1% | 19.8 min | 54 min | 380 ng/mL | 20.9% | 49.2 min | 42 min | 1320 ng/mL | 28.3% | 9 min | 12.6 min | 19.1 - 28.3% |
